The source of these data is paper PMC4501059, “Responding to the challenge of untreatable gonorrhea: ETX0914, a first-in-class agent with a distinct mechanism-of-action against bacterial Type II topoisomerases” (Scientific Reports, 2015).

The structures appear in SMILES notation. ≈ marks a conversion by molar mass, not a printed value.

Usually IC50 stands for the midpoint of a concentration-inhibition curve. The term fraction unbound denotes free concentration divided by total concentration. High values mean much free substance, low ones little free substance. Broadly, the solubility is the concentration that dissolves in the medium under given conditions. A low value points to little dissolved substance. In general, clearance refers to the volume of plasma or blood freed of the substance per unit of time.

For one data set, the target named is hERG (Homo sapiens, UniProt Q12809). The experiment in a line: In vitro ion channel function. The note with it: hERG IC50, K^+ rectifying current/QT interval. (In general: The hERG channel carries a current that helps repolarise heart muscle cells.)
Chain of hERG (Q12809 whole entry): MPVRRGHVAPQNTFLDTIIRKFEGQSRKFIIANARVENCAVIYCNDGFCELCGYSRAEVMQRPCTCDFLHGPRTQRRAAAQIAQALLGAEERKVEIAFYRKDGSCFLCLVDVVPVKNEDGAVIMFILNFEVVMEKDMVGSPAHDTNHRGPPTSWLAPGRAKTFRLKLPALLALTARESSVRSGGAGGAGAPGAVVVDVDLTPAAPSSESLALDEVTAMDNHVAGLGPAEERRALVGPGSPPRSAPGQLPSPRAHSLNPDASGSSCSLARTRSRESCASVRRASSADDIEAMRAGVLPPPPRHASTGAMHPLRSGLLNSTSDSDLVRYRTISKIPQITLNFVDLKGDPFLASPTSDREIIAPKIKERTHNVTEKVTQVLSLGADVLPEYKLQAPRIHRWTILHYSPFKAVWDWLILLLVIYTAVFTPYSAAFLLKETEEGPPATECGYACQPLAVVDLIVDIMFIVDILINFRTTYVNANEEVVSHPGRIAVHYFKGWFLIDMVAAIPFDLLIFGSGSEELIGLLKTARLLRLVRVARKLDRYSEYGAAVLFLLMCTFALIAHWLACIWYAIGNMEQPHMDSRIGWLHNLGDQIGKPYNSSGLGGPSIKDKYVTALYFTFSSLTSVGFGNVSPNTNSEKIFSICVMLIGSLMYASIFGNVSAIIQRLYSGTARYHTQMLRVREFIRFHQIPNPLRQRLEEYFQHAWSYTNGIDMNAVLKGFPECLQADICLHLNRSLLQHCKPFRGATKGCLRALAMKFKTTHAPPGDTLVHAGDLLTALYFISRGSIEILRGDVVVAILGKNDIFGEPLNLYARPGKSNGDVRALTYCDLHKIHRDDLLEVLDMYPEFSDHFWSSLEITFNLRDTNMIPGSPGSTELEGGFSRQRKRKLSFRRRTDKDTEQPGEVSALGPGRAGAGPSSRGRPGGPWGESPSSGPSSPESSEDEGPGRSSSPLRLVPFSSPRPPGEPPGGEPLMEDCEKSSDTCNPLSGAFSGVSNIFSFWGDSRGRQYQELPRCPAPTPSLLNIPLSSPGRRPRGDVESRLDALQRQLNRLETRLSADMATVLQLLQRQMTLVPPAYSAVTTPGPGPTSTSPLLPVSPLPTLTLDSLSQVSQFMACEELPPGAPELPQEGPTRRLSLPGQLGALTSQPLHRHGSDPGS
A short description of data set [1]: Human plasma protein binding (PPB). The conditions noted are these: plasma.
The next data set deals with S. aureus ARC516. The experiment in a line: MIC (CLSI broth microdilution). Format: cell-based.
The next data set deals with mouse lymphoma cells. Put plainly: in vitro mouse micronucleus aberration assay (MMA). Format: cell-based. The conditions noted are these: for Micronucleus NOEL: in vitro. As to the method: (§1) In vitro toxicology. Experiments for assessing micronuclei in mouse lymphoma cells^19 myeloid cytotoxicity^20 and erythroid cytotoxicity^21 were performed as described previously.

Data set [2] concerns S. pneumoniae ARC2205 (ERQR). Put plainly: MIC (CLSI broth microdilution). Format: cell-based. A general note: In broth dilution the organism is exposed to a series of concentrations in liquid medium.
The test system of a further data set is N. gonorrhoeae ATCC49226. The experiment in a line: MIC (CLSI agar dilution). It counts as cell-based. On the technique in general: Agar dilution tests growth on a series of plates holding different concentrations.
Data set [3] relates to N. gonorrhoeae ARC4676 (QR). Format: cell-based.
The next data set relates to S. pneumoniae ATCC49619. Put plainly: MIC (CLSI broth microdilution). Format: cell-based.
Data set [4] concerns mammalian erythroid cell lines. The experiment in a line: erythroid cytotoxicity (growth inhibition). The conditions noted are these: read-out: Erythroid IC50. It counts as cell-based. As to the method:
as §1

The test system of data set [5] is S. aureus AP607004 (MRQR). The experiment in a line: MIC (CLSI broth microdilution). Format: cell-based.
The nature of the next data set: Dog pharmacokinetics. Format: in vivo, Beagle dog. The note with it: beagle, dog, plasma. As to the method: AZD0914 was analyzed in mouse, rat, dog, monkey plasma using a qualified method which was later validated for human plasma analysis. The validated human method is described below and is representative of the approach taken in other species. AZD0914 was determined in human plasma prepared with K2EDTA as an anticoagulant. AZD0914 and an internal standard (^13C2, ^15N2 AZD0914) were extracted from plasma with tert- butyl methyl ether. After evaporating to dryness under a stream of nitrogen, the residue was reconstituted and quantitated by reverse phase HPLC-MS/MS against a standard curve from 1.00 to 5000 ng/ml. Separation was achieved using a gradient which went from 55% to 85% methanol:acetonitrile (1:1) containing 0.2% formic acid as mobile phase B and 0.2% formic acid in water as mobile phase A at a flow rate of 0.60 ml/min through a Phenomonex Gemini C18 column (50 x 2.0 mm column, […]) heated using a Shimadzu CTO-20AC set to 40 °C. AZD0914 was detected in multiple reaction monitoring (MRM) mode by positive ion electrospray ionization using a Sciex API5500 (Toronto, Canada) mass spectrometer. The ion spray voltage was set to 5500 V and turboionspray temperature was 650 °C. AZD0914 was quantitated using the MRM transition 488.2 → 348.2 using a collision energy of 29 eV. The internal standard, (^13C2, ^15N2 AZD0914), was monitored using identical conditions except for the MRM transition of 492.2 → 348.2.

A further data set concerns the target Kv1.5 (Homo sapiens, UniProt P22460). The experiment in a line: In vitro ion channel function. It counts as cell-based. The note with it: Ikr/Kv1.5 IC50, Rapidly activating K^+ delayed rectifier. The text has this: (§2) Supplement srep11827-s1.doc, table 3 | column: Table S2: In vitro ion channel function IC50 (µM)
Another data set has as its target hNav1.5 (Homo sapiens, UniProt Q14524). The experiment in a line: In vitro ion channel function. Format: cell-based. The conditions noted are these: hNav1.5 IC50, Initiation of cardiac action potential/QRS interval.
Description: as §2

A further data set concerns the target T1, Ito/Kv4.3 (Homo sapiens, UniProt Q9UK17).
T1 sequence (Q9UK17 1-655): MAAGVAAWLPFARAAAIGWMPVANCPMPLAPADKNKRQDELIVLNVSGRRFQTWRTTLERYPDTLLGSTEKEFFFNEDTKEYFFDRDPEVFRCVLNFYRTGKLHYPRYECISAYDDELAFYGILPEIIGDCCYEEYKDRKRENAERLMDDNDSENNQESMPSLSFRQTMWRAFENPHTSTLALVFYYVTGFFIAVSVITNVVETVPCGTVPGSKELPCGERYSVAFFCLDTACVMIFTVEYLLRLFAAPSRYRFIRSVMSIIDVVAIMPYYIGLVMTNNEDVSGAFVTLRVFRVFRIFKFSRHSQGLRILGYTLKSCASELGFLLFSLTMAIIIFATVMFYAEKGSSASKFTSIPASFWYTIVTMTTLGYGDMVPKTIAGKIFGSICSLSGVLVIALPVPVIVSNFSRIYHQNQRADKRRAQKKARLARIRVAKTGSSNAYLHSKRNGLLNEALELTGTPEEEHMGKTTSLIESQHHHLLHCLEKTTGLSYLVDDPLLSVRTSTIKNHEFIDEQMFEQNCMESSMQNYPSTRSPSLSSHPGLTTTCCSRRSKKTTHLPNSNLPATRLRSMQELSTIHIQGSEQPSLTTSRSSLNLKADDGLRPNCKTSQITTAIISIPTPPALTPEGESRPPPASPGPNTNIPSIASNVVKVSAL
Put plainly: In vitro ion channel function. It counts as cell-based. The note with it: Ito/Kv4.3 IC50, Transient outward K^+ early repolarization.
Description: as §2

The next data set has as its target hCav1.2 (Homo sapiens, UniProt Q13936). Put plainly: In vitro ion channel function. It counts as cell-based. The note with it: hCav1.2 IC50, Ca^2+ entry into excitable cells.
Description: as §2

For a further data set, the target named is Iks/Kv7.1 (Homo sapiens, UniProt P51787). The experiment in a line: In vitro ion channel function. Format: cell-based. The conditions noted are these: Iks/Kv7.1 IC50, Slowly activating K^+ delayed rectifier.
Chain of Iks/Kv7.1 (P51787 whole entry): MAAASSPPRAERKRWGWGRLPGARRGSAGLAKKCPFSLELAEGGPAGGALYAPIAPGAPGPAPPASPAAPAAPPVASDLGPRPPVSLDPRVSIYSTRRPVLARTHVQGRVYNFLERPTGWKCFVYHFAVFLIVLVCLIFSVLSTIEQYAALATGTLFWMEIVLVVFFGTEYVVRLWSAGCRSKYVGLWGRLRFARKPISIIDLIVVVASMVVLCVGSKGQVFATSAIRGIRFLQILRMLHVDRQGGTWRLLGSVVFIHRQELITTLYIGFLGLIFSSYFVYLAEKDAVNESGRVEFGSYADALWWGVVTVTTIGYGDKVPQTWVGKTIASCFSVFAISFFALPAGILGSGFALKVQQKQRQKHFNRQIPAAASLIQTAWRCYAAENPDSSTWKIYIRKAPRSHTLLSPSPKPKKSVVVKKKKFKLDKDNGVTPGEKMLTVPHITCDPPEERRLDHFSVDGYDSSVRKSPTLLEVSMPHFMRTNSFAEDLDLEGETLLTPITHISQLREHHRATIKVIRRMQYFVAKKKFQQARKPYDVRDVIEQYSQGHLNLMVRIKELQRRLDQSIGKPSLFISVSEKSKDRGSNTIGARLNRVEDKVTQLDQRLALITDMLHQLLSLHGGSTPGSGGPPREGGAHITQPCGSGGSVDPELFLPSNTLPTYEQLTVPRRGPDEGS
Description: as §2

Data set [6] concerns mammalian myeloid cell lines. Put plainly: myeloid cytotoxicity (growth inhibition). Format: cell-based. The note with it: read-out: Myeloid IC50. How it is done: as §1

Chain of hNav1.5 (Q14524 whole entry): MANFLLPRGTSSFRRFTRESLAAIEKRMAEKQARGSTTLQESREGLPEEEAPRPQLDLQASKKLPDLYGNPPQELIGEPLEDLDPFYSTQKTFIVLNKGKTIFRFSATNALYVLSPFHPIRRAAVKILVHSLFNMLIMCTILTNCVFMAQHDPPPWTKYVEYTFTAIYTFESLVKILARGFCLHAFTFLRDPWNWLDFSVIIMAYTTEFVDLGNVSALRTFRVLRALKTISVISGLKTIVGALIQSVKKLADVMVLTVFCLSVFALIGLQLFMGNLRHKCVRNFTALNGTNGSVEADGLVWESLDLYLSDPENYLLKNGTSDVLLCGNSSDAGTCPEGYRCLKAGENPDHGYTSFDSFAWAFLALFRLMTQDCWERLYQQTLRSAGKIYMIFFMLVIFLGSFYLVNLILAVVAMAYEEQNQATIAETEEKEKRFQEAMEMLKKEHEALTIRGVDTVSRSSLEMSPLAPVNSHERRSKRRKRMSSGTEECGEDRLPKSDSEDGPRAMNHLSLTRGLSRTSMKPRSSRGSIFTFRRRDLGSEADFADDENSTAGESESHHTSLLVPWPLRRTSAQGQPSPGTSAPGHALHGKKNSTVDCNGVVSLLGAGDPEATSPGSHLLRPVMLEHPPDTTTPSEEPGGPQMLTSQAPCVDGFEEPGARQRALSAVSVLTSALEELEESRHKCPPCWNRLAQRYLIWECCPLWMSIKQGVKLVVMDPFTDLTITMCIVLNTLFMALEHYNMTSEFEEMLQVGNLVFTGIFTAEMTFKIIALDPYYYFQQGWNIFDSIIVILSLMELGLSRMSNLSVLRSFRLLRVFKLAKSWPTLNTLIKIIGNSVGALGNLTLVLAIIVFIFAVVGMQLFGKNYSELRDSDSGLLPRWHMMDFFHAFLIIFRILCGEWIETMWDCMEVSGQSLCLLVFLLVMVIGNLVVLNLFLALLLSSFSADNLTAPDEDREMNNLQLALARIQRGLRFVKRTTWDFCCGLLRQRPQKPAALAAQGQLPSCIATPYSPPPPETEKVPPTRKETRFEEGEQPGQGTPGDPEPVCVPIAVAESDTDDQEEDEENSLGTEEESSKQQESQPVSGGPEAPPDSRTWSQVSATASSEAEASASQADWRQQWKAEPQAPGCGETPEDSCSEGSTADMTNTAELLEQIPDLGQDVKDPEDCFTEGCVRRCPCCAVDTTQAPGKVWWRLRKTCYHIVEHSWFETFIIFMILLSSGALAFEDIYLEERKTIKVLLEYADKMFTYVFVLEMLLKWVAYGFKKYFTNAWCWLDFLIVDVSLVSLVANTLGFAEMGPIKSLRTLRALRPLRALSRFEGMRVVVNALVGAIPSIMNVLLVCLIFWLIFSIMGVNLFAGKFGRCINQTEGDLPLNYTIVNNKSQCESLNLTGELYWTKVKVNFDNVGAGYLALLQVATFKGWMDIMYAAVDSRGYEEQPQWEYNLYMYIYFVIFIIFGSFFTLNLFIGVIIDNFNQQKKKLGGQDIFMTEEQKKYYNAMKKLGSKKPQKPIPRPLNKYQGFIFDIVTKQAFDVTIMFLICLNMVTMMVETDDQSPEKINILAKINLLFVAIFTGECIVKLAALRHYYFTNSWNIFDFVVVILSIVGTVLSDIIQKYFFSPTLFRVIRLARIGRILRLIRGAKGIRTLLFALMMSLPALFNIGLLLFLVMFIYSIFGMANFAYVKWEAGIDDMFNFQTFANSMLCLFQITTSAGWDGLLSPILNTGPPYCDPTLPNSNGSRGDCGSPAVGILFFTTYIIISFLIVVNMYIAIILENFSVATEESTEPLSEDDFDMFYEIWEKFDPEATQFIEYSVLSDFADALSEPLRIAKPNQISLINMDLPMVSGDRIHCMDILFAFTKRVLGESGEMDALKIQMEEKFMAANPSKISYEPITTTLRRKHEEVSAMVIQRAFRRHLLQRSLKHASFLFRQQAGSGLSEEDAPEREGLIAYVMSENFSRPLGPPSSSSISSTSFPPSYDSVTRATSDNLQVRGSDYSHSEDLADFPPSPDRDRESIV
Chain of Kv1.5 (P22460 whole entry): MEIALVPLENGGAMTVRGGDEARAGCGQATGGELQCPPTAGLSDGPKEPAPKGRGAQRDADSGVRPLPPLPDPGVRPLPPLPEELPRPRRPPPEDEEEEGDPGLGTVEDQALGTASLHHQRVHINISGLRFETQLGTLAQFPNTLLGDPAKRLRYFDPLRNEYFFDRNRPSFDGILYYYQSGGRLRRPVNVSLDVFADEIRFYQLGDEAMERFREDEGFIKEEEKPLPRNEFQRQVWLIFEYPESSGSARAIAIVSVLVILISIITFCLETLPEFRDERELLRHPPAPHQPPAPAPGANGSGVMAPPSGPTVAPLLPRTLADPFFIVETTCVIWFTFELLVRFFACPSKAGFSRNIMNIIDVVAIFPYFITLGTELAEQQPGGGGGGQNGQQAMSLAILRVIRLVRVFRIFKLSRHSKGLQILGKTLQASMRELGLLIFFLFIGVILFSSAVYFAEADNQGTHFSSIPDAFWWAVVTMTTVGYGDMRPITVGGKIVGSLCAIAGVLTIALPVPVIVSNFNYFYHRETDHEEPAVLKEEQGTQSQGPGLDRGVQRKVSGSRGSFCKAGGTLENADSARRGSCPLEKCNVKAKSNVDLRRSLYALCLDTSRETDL

With `C[C@@H]1CN2c3c(cc4c(C(=O)NCC(F)(F)F)noc4c3F)CC3(C(=O)NC(=O)NC3=O)[C@H]2[C@H](C)O1` [Compound 7], the IC50 was 91 µM against hERG; 95 µM in [4]; greater than 100 µM against Kv1.5; greater than 100 µM against hNav1.5; greater than 90 µM on Ito/Kv4.3; greater than 100 µM against hCav1.2. In addition, the IC50 on Iks/Kv7.1 was greater than 100 µM; in data set [6] it was 43 µM. In data set [1], this compound yielded a fraction unbound of 0.13. The “MIC: S. aureus ARC516” value with S. aureus ARC516 worked out at 0.125 µg/mL (≈ 0.243 µM). In addition, the “Micronucleus NOEL” value in the data set with mouse lymphoma cells was 100 µM. Besides, the “MIC: S. pneumoniae ARC2205 (ERQR)” value in data set [2] was found to be 0.125 µg/mL (≈ 0.243 µM). Further, the “MIC: N. gonorrhoeae ATCC49226” value against N. gonorrhoeae ATCC49226 was determined as 0.25 µg/mL (≈ 0.487 µM). Also, the concentration in solution in the data set “physchem” (solubility) came to 77 µM (≈ 39.5 µg/mL). In data set [3], the “MIC: N. gonorrhoeae ARC4676 (QR)” value is 0.25 µg/mL (≈ 0.487 µM). Also, the “MIC: S. pneumoniae ATCC49619” value against S. pneumoniae ATCC49619 turned out to be 0.125 µg/mL (≈ 0.243 µM). Besides, in data set [5], the “MIC: S. aureus AP607004 (MRQR)” value amounted to 0.25 µg/mL (≈ 0.487 µM). Further, in “Dog pharmacokinetics”, the “Dog F” value worked out at 74%. In the data set “Dog pharmacokinetics”, this compound returned a clearance of 5.8 mL/min/kg.
As to `Cc1noc2c(F)c3c(cc12)CC1(C(=O)NC(=O)NC1=O)[C@H]1[C@H](C)O[C@H](C)CN31` [Compound 5, (2R,4S,4aS)-11-Fluoro-2,4,8-trimethyl-2,4,4a,6-tetrahydro-1H,1'H-spiro[isoxazolo[4,5-g][1,4]oxazino[4,3-a]quinoline-5,5'-pyrimidine]-2',4',6'(3'H)-trione], the IC50 at hERG is greater than 100 µM; on Kv1.5, greater than 100 µM; against hNav1.5, greater than 80 µM; against Ito/Kv4.3, greater than 100 µM; at hCav1.2, greater than 100 µM; against Iks/Kv7.1, greater than 100 µM. The compound also gave a fraction unbound in [1] of 0.094. The “MIC: S. aureus ARC516” value in the data set on S. aureus ARC516 came out at 0.25 µg/mL (≈ 0.621 µM). The “Micronucleus NOEL” value in the data set with mouse lymphoma cells amounted to 50 µM. For the same compound, the “concentration giving a measurable genotoxicity signal in the in vitro MMA” value with mouse lymphoma cells (mouse) came out at 100 µM. The “MIC: S. pneumoniae ARC2205 (ERQR)” value in data set [2] worked out at 2.0 µg/mL (≈ 4.97 µM). In addition, the “MIC: N. gonorrhoeae ATCC49226” value against N. gonorrhoeae ATCC49226 came to 0.5 µg/mL (≈ 1.24 µM). The same compound showed a solubility in the data set “physchem” of 210 µM (≈ 84.5 µg/mL). The “MIC: N. gonorrhoeae ARC4676 (QR)” value in [3] was 0.5 µg/mL (≈ 1.24 µM). For the same compound, in the data set on S. pneumoniae ATCC49619, the “MIC: S. pneumoniae ATCC49619” value is 1.0 µg/mL (≈ 2.49 µM). Further, the “MIC: S. aureus AP607004 (MRQR)” value in [5] was determined as 0.5 µg/mL (≈ 1.24 µM). The “Dog F” value in “Dog pharmacokinetics” amounted to 47%. For the same compound, the clearance in the data set “Dog pharmacokinetics” is 5.3 mL/min/kg.
